Read-outs that look alike come from different tables or passages of the source.
Legend:
human dOR = human dOR (Homo sapiens (Human), UniProt P41143); assay: cell-based; conditions: dOR cAMP Agonist Assay EC50, CHO Tag-lite human dOR stable cell line; forskolin
human mOR = human mOR (Homo sapiens (Human), UniProt P35372); assay: cell-based
kOR (OPRK1) = kOR (OPRK1) (Homo sapiens (Human), UniProt P41145); assay: KOR β-Arrestin antagonist assay (Tango OPRK1-bla U2OS cells); format: cell-based
Text: KOR β-Arrestin Agonist and Antagonist assays were preformed using the Tango™ OPRK1-bla U2OS cells from Invitrogen and purchased from ThermoFisher, catalog number K1576.

[1] = CHO Tag-lite human mOR stable cell line, forskolin 4 μM and DAMGO at EC90, read-out: mOR cAMP Antagonist Assay IC50

Chain of kOR (OPRK1) (P41145 whole entry): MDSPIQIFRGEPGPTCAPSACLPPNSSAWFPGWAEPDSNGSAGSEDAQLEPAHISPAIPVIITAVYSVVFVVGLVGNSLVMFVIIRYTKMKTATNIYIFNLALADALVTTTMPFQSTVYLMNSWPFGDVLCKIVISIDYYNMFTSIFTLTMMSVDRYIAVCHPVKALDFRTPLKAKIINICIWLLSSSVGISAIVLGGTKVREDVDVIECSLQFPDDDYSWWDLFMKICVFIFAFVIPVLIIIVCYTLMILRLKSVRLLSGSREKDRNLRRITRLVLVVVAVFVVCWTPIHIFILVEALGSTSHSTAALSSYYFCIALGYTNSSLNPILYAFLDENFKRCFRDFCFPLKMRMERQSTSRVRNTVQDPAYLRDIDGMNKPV
Chain of human mOR (P35372 whole entry): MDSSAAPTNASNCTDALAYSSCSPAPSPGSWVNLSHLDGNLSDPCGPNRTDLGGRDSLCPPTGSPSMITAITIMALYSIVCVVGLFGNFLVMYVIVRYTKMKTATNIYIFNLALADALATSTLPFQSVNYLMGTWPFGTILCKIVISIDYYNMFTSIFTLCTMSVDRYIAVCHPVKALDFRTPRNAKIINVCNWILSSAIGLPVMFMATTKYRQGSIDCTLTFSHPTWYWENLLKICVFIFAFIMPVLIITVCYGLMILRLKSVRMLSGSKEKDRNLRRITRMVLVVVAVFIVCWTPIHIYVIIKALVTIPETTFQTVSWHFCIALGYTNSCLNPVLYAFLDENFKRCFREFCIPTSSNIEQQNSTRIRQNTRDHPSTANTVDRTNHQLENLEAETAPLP
Chain of human dOR (P41143 whole entry): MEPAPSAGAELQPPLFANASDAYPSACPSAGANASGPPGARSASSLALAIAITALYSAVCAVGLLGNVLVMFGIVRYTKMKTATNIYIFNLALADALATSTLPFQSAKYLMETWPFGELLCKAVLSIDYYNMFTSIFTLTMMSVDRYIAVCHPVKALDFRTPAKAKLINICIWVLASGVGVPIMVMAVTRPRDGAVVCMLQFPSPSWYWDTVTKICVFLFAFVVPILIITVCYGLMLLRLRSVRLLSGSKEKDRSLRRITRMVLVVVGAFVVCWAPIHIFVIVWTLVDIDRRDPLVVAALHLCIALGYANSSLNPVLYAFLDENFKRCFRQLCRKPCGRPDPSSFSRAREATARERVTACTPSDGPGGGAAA

SMILES	EC50 (human dOR)	IC50 (human mOR)	IC50 (kOR (OPRK1))	IC50 (human mOR; [1])
CNC(=O)c1ccc(C[C@@H](CNC(=O)C[C@H](c2cc(F)cc(F)c2)C2(C(F)(F)F)CC2)N(C)C)c(C)c1 [Compound 136, 4-((S)-3-((R)-3-(3,5-difluorophenyl)-3-(1-(trifluoromethyl)cyclopropyl)propanamido)-2-(dimethylamino)propyl)-N,3-dimethylbenzamide]	300 to 3000 nM	< 300 nM	< 300 nM	–
Cc1ncc([C@@H](CC(=O)NC[C@H](Cc2ccc(C(N)=O)c(F)c2Cl)N(C)C)C2(C(F)(F)F)CC2)cn1 [Compound 21, 3-chloro-4-[(2S)-2-(dimethylamino)-3-[(3R)-3-(2-methylpyrimidin-5-yl)-3-[1-(trifluoromethyl)cyclopropyl]propanamido]propyl]-2-fluorobenzamide]	300 to 3000 nM	< 300 nM	< 300 nM	–
CN(C)[C@H](CNC(=O)CC(c1ccc(Cl)cn1)C1(C(F)(F)F)CC1)Cc1ccc(C(N)=O)cc1Cl (stereo partly drawn) [Compound 37, 3-chloro-4-[(2S)-3-[3-(5-chloropyridin-2-yl)-3-[1-(trifluoromethyl)cyclopropyl]propanamido]-2-(dimethylamino)propyl]benzamide]	–	< 300 nM	< 300 nM	–
CN(C)[C@H](CNC(=O)C[C@H](CC1CCC1)c1ccccc1)Cc1ccc(C(N)=O)cc1 [Compound 90, 4-[(2S)-3-[(3S)-4-cyclobutyl-3-phenylbutanamido]-2-(dimethylamino)propyl]benzamide]	< 300 nM	< 300 nM	< 300 nM	–
CN(C)[C@H](CNC(=O)CC(c1ncc(Cl)cn1)C1(C(F)(F)F)CC1)Cc1ccc(C(N)=O)c(F)c1 (stereo partly drawn) [Compound 73, 4-[(2S)-3-[3-(5-chloropyrimidin-2-yl)-3-[1-(trifluoromethyl)cyclopropyl]propanamido]-2-(dimethylamino)propyl]-2-fluorobenzamide]	–	< 300 nM	< 300 nM	–
CN(C)[C@H](CNC(=O)CC(c1cncc(F)c1)C1(C(F)(F)F)CC1)Cc1ccc(C(N)=O)cc1Cl (stereo partly drawn) [Compound 36, 3-chloro-4-[(2S)-2-(dimethylamino)-3-[3-(5-fluoropyridin-3-yl)-3-[1-(trifluoromethyl)cyclopropyl]propanamido]propyl]benzamide]	–	–	< 300 nM	< 300 nM
Cc1ccc([C@H](CC(=O)NC[C@H](Cc2ccc(C(N)=O)c(F)c2Cl)N(C)C)C2(C(F)(F)F)CC2)cn1 [Compound 17, 3-chloro-4-[(2S)-2-(dimethylamino)-3-[(3S)-3-(6-methylpyridin-3-yl)-3-[1-(trifluoromethyl)cyclopropyl]propanamido]propyl]-2-fluorobenzamide]	–	–	< 300 nM	> 3000 nM
CN(C)[C@H](CNC(=O)C[C@@H](c1ccccc1)C1CC1)Cc1ccc2[nH]ncc2c1 [Compound 226, (3R)-3-cyclopropyl-N-[(2S)-2-(dimethylamino)-3-(1H-indazol-5-yl)propyl]-3-phenylpropanamide]	300 to 3000 nM	–	< 300 nM	< 300 nM
Cc1ncc([C@@H](CC(=O)NC[C@H](Cc2ccc(C(N)=O)c(F)c2)N2CCCC2)C2(C(F)(F)F)CC2)cn1 [Compound 65, 2-fluoro-4-((S)-3-((R)-3-(2-methylpyrimidin-5-yl)-3-(1-(trifluoromethyl)cyclopropyl)propanamido)-2-(pyrrolidin-1-yl)propyl)benzamide]	–	> 3000 nM	300 to 3000 nM	–
Cc1cc(C(N)=O)cc(C)c1C[C@@H](CNC(=O)C[C@@H](c1ccccc1)C(C)C)N(C)C [Compound 10, 4-((S)-2-(dimethylamino)-3-((R)-4-methyl-3-phenylpentanamido)propyl)-3,5-dimethylbenzamide]	> 3000 nM	< 300 nM	< 300 nM	–
COc1ccc(C(CC(=O)NC[C@H](Cc2cc(F)c(C(N)=O)c(F)c2)N(C)C)C2(C(F)(F)F)CC2)cn1 (stereo partly drawn) [Compound 49, 4-[(2S)-2-(dimethylamino)-3-[3-(6-methoxypyridin-3-yl)-3-[1-(trifluoromethyl)cyclopropyl]propanamido]propyl]-2,6-difluorobenzamide]	–	> 3000 nM	< 300 nM	–
CNC(=O)c1ccc(C[C@@H](CNC(=O)CC(c2ccccn2)C2(C(F)(F)F)CC2)N(C)C)c(C)c1 (stereo partly drawn) [Compound 141, 4-((2S)-2-(dimethylamino)-3-(3-(pyridin-2-yl)-3-(1-(trifluoromethyl)cyclopropyl)propanamido)propyl)-N,3-dimethylbenzamide]	–	< 300 nM	< 300 nM	–
COc1ncc(C(CC(=O)NC[C@H](Cc2ccc(C(N)=O)cc2Cl)N(C)C)C2(C(F)(F)F)CC2)cn1 (stereo partly drawn) [Compound 33, 3-chloro-4-[(2S)-2-(dimethylamino)-3-[3-(2-methoxypyrimidin-5-yl)-3-[1-(trifluoromethyl)hydropropyl]propanamido]propyl]benzamide]	–	< 300 nM	< 300 nM	–
CN(C)[C@H](CNC(=O)C[C@@H](CC1CC1)c1cccnc1)Cc1ccc(C(N)=O)c(F)c1 [Compound 66, 4-((S)-3-((R)-4-cyclopropyl-3-(pyridin-3-yl)butanamido)-2-(dimethylamino)propyl)-2-fluorobenzamide]	–	< 300 nM	< 300 nM	–
Cc1ncc([C@@H](CC(=O)NC[C@H](Cc2ccc(C(N)=O)cc2Cl)N(C)C)C2(C(F)(F)F)CC2)cn1 [Compound 24, 3-chloro-4-[(2S)-2-(dimethylamino)-3-[(3R)-3-(2-methylpyrimidin-5-yl)-3-[1-(trifluoromethyl)cyclopropyl]propanamido]propyl]benzamide]	–	< 300 nM	< 300 nM	–
Cc1cc(O)cc(C)c1C[C@@H](CNC(=O)CC(c1cccnc1)C1(C(F)(F)F)CC1)N(C)C (stereo partly drawn) [Compound 316, N-((S)-2-(dimethylamino)-3-(4-hydroxy-2,6-dimethylphenyl)propyl)-3-(pyridin-3-yl)-3-(1-(trifluoromethyl)cyclopropyl)propanamide]	–	< 300 nM	< 300 nM	–
CN(C)[C@H](CNC(=O)C[C@H](c1cccnc1)C1(C(F)(F)F)CC1)Cc1ccc(C(N)=O)c(F)c1Cl [Compound 18, 3-chloro-4-[(2S)-2-(dimethylamino)-3-[(3R)-3-(pyridin-3-yl)-3-[1-(trifluoromethyl)cyclopropyl]propanamido]propyl]-2-fluorobenzamide]	–	> 3000 nM	< 300 nM	–
CN(C)[C@H](CNC(=O)C[C@@H](c1ccccn1)C1(C(F)(F)F)CC1)Cc1ccc(C(N)=O)cc1 [Compound 84, 4-[(2S)-2-(dimethylamino)-3-[(3R)-3-(pyridin-2-yl)-3-[1-(trifluoromethyl)cyclopropyl]propanamido]propyl]benzamide]	–	< 300 nM	< 300 nM	–
CN(C)[C@H](CNC(=O)CC(c1cncnc1)C1(C(F)(F)F)CC1)Cc1ccc(C(N)=O)c(F)c1 (stereo partly drawn) [Compound 72, 4-[(2S)-2-(dimethylamino)-3-[3-(pyrimidin-5-yl)-3-[1-(trifluoromethyl)cyclopropyl]propanamido]propyl]-2-fluorobenzamide]	–	–	< 300 nM	< 300 nM
CN(C)[C@H](CNC(=O)C[C@@H](c1cccnc1)C1(C(F)(F)F)CC1)Cc1ccc(C(N)=O)cc1Cl [Compound 41, 3-chloro-4-((S)-2-(dimethylamino)-3-((S)-3-(pyridin-3-yl)-3-(1-(trifluoromethyl)cyclopropyl)propanamido)propyl)benzamide]	–	< 300 nM	< 300 nM	–
CN(C)[C@H](CNC(=O)CC(c1ccc(C(F)(F)F)nc1)C1(C(F)(F)F)CC1)Cc1ccc(C(N)=O)cc1Cl (stereo partly drawn) [Compound 32, 3-chloro-4-[(2S)-2-(dimethylamino)-3-{3-[1-(trifluoromethyl)cyclopropyl]-3-[6-(trifluoromethyl)pyridin-3-yl]propanamido}propyl]benzamide]	–	–	< 300 nM	< 300 nM
CN[C@H](CNC(=O)C[C@H](c1ccccc1)C1(C(F)(F)F)CC1)Cc1ccc(C(N)=O)cc1 [Compound 85, 4-[(2S)-2-(methylamino)-3-[(3R)-3-phenyl-3-[1-(trifluoromethyl)cyclopropyl]propanamido]propyl]benzamide]	–	< 300 nM	< 300 nM	–
CN(C)[C@H](CNC(=O)CC(c1cccnc1)C1(C(F)(F)F)CC1)Cc1ccc(C(N)=O)cc1Cl (stereo partly drawn) [Compound 38, 3-chloro-4-[(2S)-2-(dimethylamino)-3-[3-(pyridin-3-yl)-3-[1-(trifluoromethyl)cyclopropyl]propanamido]propyl]benzamide]	–	< 300 nM	< 300 nM	–
COc1ccc(C(CC(=O)NC[C@H](Cc2ccc(O)cc2C)N(C)C)C2(C(F)(F)F)CC2)cn1 (stereo partly drawn) [Compound 273, N-((S)-2-(dimethylamino)-3-(4-hydroxy-2-methylphenyl)propyl)-3-(6-methoxypyridin-3-yl)-3-(1-(trifluoromethyl)cyclopropyl) propanamide]	–	< 300 nM	< 300 nM	–
Cc1ncc([C@@H](CC(=O)NC[C@H](Cc2ccc(C(N)=O)cc2Cl)N(C)C)C2CC2)cn1 [Compound 25, 3-chloro-4-[(2S)-3-[(3S)-3-cyclopropyl-3-(2-methylpyrimidin-5-yl)propanamido]-2-(dimethylamino)propyl]benzamide]	–	< 300 nM	300 to 3000 nM	–
CN(C)[C@H](CNC(=O)C[C@H](c1ccccn1)C1(C(F)(F)F)CC1)Cc1ccc(C(N)=O)cc1 [Compound 81, 4-((S)-2-(dimethylamino)-3-((S)-3-(pyridin-2-yl)-3-(1-(trifluoromethyl)cyclopropyl)propanamido)propyl)benzamide]	–	< 300 nM	< 300 nM	–
CN(C)[C@H](CNC(=O)CC(c1cncc(F)c1)C1(C(F)(F)F)CC1)Cc1ccc(C(N)=O)c(F)c1 (stereo partly drawn) [Compound 76, 4-[(2S)-2-(dimethylamino)-3-[3-(5-fluoropyridin-3-yl)-3-[1-(trifluoromethyl)cyclopropyl]propanamido]propyl]-2-fluorobenzamide]	–	> 3000 nM	< 300 nM	–

Reference: patent US11634396B2 (priority 2021, dated 2023)
